Measured values published in PubChem BioAssay AID624113 (National Center for Advancing Translational Sciences (NCATS), 2012).

System: mouse plasma stability, percent remaining
Experiment: qHTS Assay for Inhibitors of Bacillus subtilis Sfp phosphopantetheinyl transferase (PPTase): Mouse Plasma Stability
Conditions: active compounds read high
From the text: The covalent attachment of a phosphopantetheinyl (4'-PP) arm to a variety of synthases and other proteins is a key posttranslational protein modification. The 4'-PP is installed on the proteins post-translationally from coenzyme A (CoA) on a conserved serine residue by action of phosphopantetheinyl transferase (PPTase) enzymes. Phosphopantetheinylation is essential for synthase activity, and removal of the PPTase gene precludes natural product synthesis in microorganisms, or in the case of fatty acid biosynthesis, renders the organism unviable. PPTase enzymes belong to a distinct structural superfamily. Within bacteria, these enzymes are grouped into two classes based upon primary structure, the AcpS-Type and Sfp-Type PPTases.
Sfp-type PPTases, corresponding to an activator of surfactin production in Bacillus subtilis, are responsible for modifying type I polyketide and nonribosomal peptide synthases of prokaryotes. Sfp-type PPTases are responsible for the activation of a variety of pathogen-associated virulence factors. […]
5 uM of compound is incubated with mouse liver microsome; the reference compounds are verapamil and warfarin. Compounds are incubated and samples are analyzed with LC-MS/MS.

With `COc1ccnc(NC(=S)N2CCN(c3ncc(C(F)(F)F)cc3Cl)CC2)c1` the percent remaining was 100%.
